From BindingDB's records for doi:10.1016/s0960-894x(01)00648-5 (Merck Research Laboratories, 2001) come the findings set out here.

Where only a bound is given, the exact number is not on record here.

The target of the first test is T1, Genome polyprotein (Human rhinovirus sp., UniProt Q04107).
T1 sequence (Q04107 whole entry): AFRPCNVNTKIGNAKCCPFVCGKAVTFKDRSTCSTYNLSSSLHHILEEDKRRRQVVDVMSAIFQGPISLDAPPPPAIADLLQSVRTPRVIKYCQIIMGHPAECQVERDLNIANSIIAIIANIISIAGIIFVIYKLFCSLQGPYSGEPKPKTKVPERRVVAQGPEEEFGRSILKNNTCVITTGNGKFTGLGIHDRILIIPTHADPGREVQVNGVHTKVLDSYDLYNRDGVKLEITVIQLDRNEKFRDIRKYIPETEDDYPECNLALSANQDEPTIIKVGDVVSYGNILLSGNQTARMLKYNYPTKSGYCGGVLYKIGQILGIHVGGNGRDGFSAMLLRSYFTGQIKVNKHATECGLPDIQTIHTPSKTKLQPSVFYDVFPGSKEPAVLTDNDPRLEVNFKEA
As to the kind of experiment: ChEBML_160894. From the text: (§1) Inhibitory activity against HRV 3Cpro using HPLC assay
`O=C1C=Cc2ccccc2C1=O` [1,2-dihydronaphthalene-1,2-dione] gave an IC50 of 8.2 µM.
In the case of `Cc1cc(O)c2c(c1)C(=O)c1cc(O)cc(O)c1C2=O` [1,3,8-trihydroxy-6-methylanthra-9,10-quinone], the IC50 was over 150 µM.
As to `CC1Cc2cc(O)c3c(c2C(=O)O1)C(=O)C=C(C1=CC(=O)c2c(c(O)cc4c2C(=O)OC(C)C4)C1=O)C3=O` (stereo not drawn) [9,9'-Dihydroxy-2,2'-dimethyl-1,2,1',2'-tetrahydro-[7,7']bi[3-oxa-phenanthrenyl]-4,5,8,4',5',8'-hexaone], it took 6 µM to reach half-maximal inhibition (IC50).

Another test deals with T2, Genome polyprotein (Human rhinovirus sp., UniProt Q4U254).
T2 sequence (Q4U254 whole entry): T1 sequence (Q04107 whole entry)
In words: ChEBML_160894.
Description: as §1
As to `O=C1C(=O)c2ccccc2-c2ccccc21`, the IC50 was found to be 1.4 µM. In other words, the single-digit micromolar range.
In turn, `COC1=CC(=O)c2ccccc2C1=O` registered an IC50 of 26 µM.
On the same count and under the same terms, the result for `O=C1CC(=O)c2ccccc2C1=O` reads over 150 µM; that for `O=C1C=CC(=O)c2ccccc21` [1,4-dihydronaphthalene-1,4-dione], 21 µM; that for `COC1=CC(=O)c2ccc(C)cc2C1=O` [2-Methoxy-7-methyl-[1,4]naphthoquinone], 10.5 µM.
On to `COC1=CC(=O)c2c(O)cc(C)cc2C1=O` [2-methoxy-7-methyljuglone], for which half-maximal inhibition (IC50) required 2.4 µM.
Still for that read-out and setting: in the case of `Cc1cc(O)c2c(c1)C(=O)C=CC2=O` [5-Hydroxy-7-methyl-[1,4]naphthoquinone] it was 6.4 µM; in that of `COC1=CC(=O)c2c(cc(C)c(C(C)=O)c2O)C1=O` [6-Acetyl-5-hydroxy-2-methoxy-7-methyl-[1,4]naphthoquinone], 4.6 µM; in that of `CC(=O)c1c(C)cc2c(c1O)C(=O)C(=O)CC2=O` [7-Acetyl-2,8-dihydroxy-6-methyl-[1,4]naphthoquinone], over 150 µM.
Consider `COC1=CC(=O)c2cc(C)c(C(C)=O)c(OC)c2C1=O` [7-Acetyl-2,8-dimethoxy-6-methyl-[1,4]naphthoquinone], for which half-maximal inhibition (IC50) required 124 µM.
With `C[C@@H]1CC2=C(C(=O)c3c(O)cc(O)cc3C2=O)[C@@H](O)O1` [(1S,3R)-1,7,9-Trihydroxy-3-methyl-3,4-dihydro-1H-benzo[g]isochromene-5,10-dione], the IC50 was determined as 47 µM.
The same measure, in the same setting: in the case of `COC1=CC(=O)c2c(cc(C)c(C(C)=O)c2OC(C)=O)C1=O` [Acetic acid 2-acetyl-6-methoxy-3-methyl-5,8-dioxo-5,8-dihydro-naphthalen-1-yl ester] it was 8.1 µM.
`COC1=CC(=O)c2c(OC(C)=O)cc(C)cc2C1=O` [Acetic acid 6-methoxy-3-methyl-5,8-dioxo-5,8-dihydro-naphthalen-1-yl ester] returned an IC50 of 40 µM.
Still for that read-out and setting: in the case of `O=C1C=CC(=O)c2c1ccc1c2ccc2ccccc21` [Chrysene-1,4-dione] it was 46.5 µM; in that of `COc1cc(O)c2c(c1)C(=O)c1cc(C)cc(O)c1C2=O` [physcion], over 150 µM.
